The record followed here is patent US8674109B2, “Pesticidal compositions” (Dow AgroSciences, LLC., priority 2009, dated 2014).

Assay type in all cases: in vivo
Series [1] relates to corn earworm (CEW; Helicoverpa zea: Lepidoptera). Nature of the series: Insecticidal test for corn earworm, 128-well diet tray assay. The protocol: Insecticidal Test for Corn Earworm (Helicoverpa zea)
(§1) Bioassays on corn earworm (CEW; Helicoverpa zea: Lepidoptera) were conducted using a 128-well diet tray assay. Three to five second instar CEW larvae were placed in each well (3 mL) of the diet tray that had been previously filled with 1 mL of artificial diet to which 50 μg/cm^2 of the test compound (dissolved in 50 μL of 90:10 acetone-water mixture) had been applied (to each of eight wells) and then allowed to dry. Trays were covered with a clear self-adhesive cover, and held at 25° C., 14:10 light-dark for six days. Percent mortality was recorded for the larvae in each well; activity in the eight wells was then averaged.

The subject of series [2] is green peach aphid (Myzus persicae). Nature of the series: Insecticidal test for green peach aphid in foliar spray assay on cabbage seedlings. As to the method: Insecticidal Test for Green Peach Aphid (Myzus persicae) in Foliar Spray Assay
Cabbage seedlings grown in 3-inch pots, with 2-3 small (3-5 cm) true leaves, were used as test substrate. The seedlings were infested with 20-50 green peach aphids (wingless adult and nymph) one day prior to chemical application. Four pots with individual seedlings were used for each treatment. Compounds (2 mg) were dissolved in 2 mL of acetone/methanol (1:1) solvent, forming stock solutions of 1000 ppm. The stock solutions were diluted 5× with 0.025% Tween 20 in H2O to obtain the solution at 200 ppm. A hand-held Devilbiss sprayer was used for spraying a solution to both sides of cabbage leaves until runoff. Reference plants (solvent check) were sprayed with the diluent only. Treated plants were held in a holding room for three days at approximately 25° C. and 40% relative humidity (RH) prior to grading. Evaluation was conducted by counting the number of live aphids per plant under a microscope. Insecticidal activity was measured by using Abbott's correction formula are presented in Table 2: Corrected % Control=100*(X−Y)/X
where • X=No. of live aphids on solvent check plants • Y=No. of live aphids on treated plants

Series [3] relates to beet armyworm (BAW; Spodoptera exigua: Lepidoptera). Put plainly: Insecticidal test for beet armyworm, 128-well diet tray assay. The protocol: Insecticidal Test for Beet Armyworm (Spodoptera exigua)
as §1, with “beet armyworm (BAW; Spodoptera exigua:” for “corn earworm (CEW; Helicoverpa zea:”, “BAW” for “CEW”

Each structure is given as a SMILES string.

Regarding `CC(C)(OC(=O)Nc1ccc(-c2ncn(-c3ccc(OC(F)(F)F)cc3)n2)cc1)c1ccc(C(F)(F)F)cc1` [Compound 49], in series [1], the “% Mortality CEW 50 μg/cm^2” value is “A (50-100)”. The “% Mortality GPA 200 ppm” value in series [2] is on record as “B (Less than 80)”. Moreover, the “% Mortality BAW 50 μg/cm^2” value in series [3] was “A (50-100)”.

On to `O=C(Nc1ccc(-c2ncn(-c3ccc(OC(F)(F)F)cc3)n2)cc1)OCc1ccc(C(F)(F)F)cc1` [Compound 50], for which the “% Mortality CEW 50 μg/cm^2” value in series [1] is on record as “B (Less than 50)”. Further, the “% Mortality GPA 200 ppm” value in series [2] was “B (Less than 80)”. Also, in series [3], the “% Mortality BAW 50 μg/cm^2” value is on record as “B (Less than 50)”.

Take `CC(OC(=O)Nc1ccc(-c2ncn(-c3ccc(OC(F)(F)F)cc3)n2)cc1)c1ccc(C(F)(F)F)[n+]([O-])c1` (stereo not drawn) [Compound 51]: the “% Mortality CEW 50 μg/cm^2” value in series [1] is on record as “A (50-100)”. In addition, the “% Mortality GPA 200 ppm” value in series [2] was “B (Less than 80)”. In series [3], the “% Mortality BAW 50 μg/cm^2” value is on record as “A (50-100)”.

As for `C#CC(OC(=O)Nc1ccc(-c2ncn(-c3ccc(OC(F)(F)F)cc3)n2)cc1)c1ccc(Cl)nc1` (stereo not drawn) [Compound 52], the “% Mortality CEW 50 μg/cm^2” value in series [1] was “A (50-100)”. The “% Mortality GPA 200 ppm” value in series [2] is “B (Less than 80)”. Moreover, the “% Mortality BAW 50 μg/cm^2” value in series [3] was “A (50-100)”.

On to `C#CC(OC(=O)Nc1ccc(-c2ncn(-c3ccc(OC(F)(F)F)cc3)n2)cc1)c1ccc(C(F)(F)F)nc1` (stereo not drawn) [Compound 53], for which, in series [1], the “% Mortality CEW 50 μg/cm^2” value is reported as “A (50-100)”. Further, the “% Mortality GPA 200 ppm” value in series [2] is “B (Less than 80)”. In series [3], the “% Mortality BAW 50 μg/cm^2” value is given as “A (50-100)”.

Consider `CC(OC(=O)Nc1ccc(-c2ncn(-c3ccc(OC(F)(F)F)cc3)n2)cc1)c1cnc(Cl)s1` (stereo not drawn) [Compound 54], for which the “% Mortality CEW 50 μg/cm^2” value in series [1] is recorded as “A (50-100)”. For the same molecule, the “% Mortality GPA 200 ppm” value in series [2] is “B (Less than 80)”. Besides, the “% Mortality BAW 50 μg/cm^2” value in series [3] was “A (50-100)”.

As to `COc1ccc(C(C)OC(=O)Nc2ccc(-c3ncn(-c4ccc(OC(F)(F)F)cc4)n3)cc2)cn1` (stereo not drawn) [Compound 55], the “% Mortality CEW 50 μg/cm^2” value in series [1] was “A (50-100)”. Moreover, the “% Mortality GPA 200 ppm” value in series [2] was “B (Less than 80)”. Besides, the “% Mortality BAW 50 μg/cm^2” value in series [3] is “A (50-100)”.

For `CC(OC(=O)Nc1ccc(-c2ncn(-c3ccc(OC(F)(F)F)cc3)n2)cc1)c1ccc(Cl)nc1` (stereo not drawn) [Compound 56], the “% Mortality CEW 50 μg/cm^2” value in series [1] is on record as “A (50-100)”. Besides, the “% Mortality GPA 200 ppm” value in series [2] is “B (Less than 80)”. In series [3], the “% Mortality BAW 50 μg/cm^2” value was “A (50-100)”.

In the case of `CC(OC(=O)Nc1ccc(-c2ncn(-c3ccc(OC(F)(F)F)cc3)n2)cc1)c1cnc(C(F)(F)F)nc1` (stereo not drawn) [Compound 57], in series [1], the “% Mortality CEW 50 μg/cm^2” value is given as “A (50-100)”. Moreover, the “% Mortality GPA 200 ppm” value in series [2] is “B (Less than 80)”. The “% Mortality BAW 50 μg/cm^2” value in series [3] is given as “A (50-100)”.

For the molecule `COCC(OC(=O)Nc1ccc(-c2ncn(-c3ccc(OC(F)(F)F)cc3)n2)cc1)c1ccccc1` (stereo not drawn) [Compound 58], the “% Mortality CEW 50 μg/cm^2” value in series [1] is recorded as “A (50-100)”. Also, the “% Mortality GPA 200 ppm” value in series [2] is recorded as “B (Less than 80)”. Moreover, the “% Mortality BAW 50 μg/cm^2” value in series [3] is reported as “A (50-100)”.

Take `CC(OC(=O)Nc1ccc(-c2ncn(-c3ccc(OC(F)(F)F)cc3)n2)cc1)c1ccccc1` (stereo not drawn) [Compound 59]: the “% Mortality CEW 50 μg/cm^2” value in series [1] was “A (50-100)”. In series [2], the “% Mortality GPA 200 ppm” value is listed as “B (Less than 80)”. Moreover, the “% Mortality BAW 50 μg/cm^2” value in series [3] is “A (50-100)”.

Take `CCC(OC(=O)Nc1ccc(-c2ncn(-c3ccc(OC(F)(F)F)cc3)n2)cc1)c1cccc(Br)c1` (stereo not drawn) [Compound 63]: in series [1], the “% Mortality CEW 50 μg/cm^2” value is given as “A (50-100)”. For the same molecule, in series [2], the “% Mortality GPA 200 ppm” value is “B (Less than 80)”. Besides, the “% Mortality BAW 50 μg/cm^2” value in series [3] is given as “A (50-100)”.

Take `CC(OC(=O)Nc1ccc(-c2ncn(-c3ccc(OC(F)(F)F)cc3)n2)cc1)c1ccc(OC(F)(F)F)cc1` (stereo not drawn) [Compound 64]: in series [1], the “% Mortality CEW 50 μg/cm^2” value is “A (50-100)”. Besides, in series [2], the “% Mortality GPA 200 ppm” value was “B (Less than 80)”. The “% Mortality BAW 50 μg/cm^2” value in series [3] is on record as “A (50-100)”.

With `CCC(OC(=O)Nc1ccc(-c2ncn(-c3ccc(OC(F)(F)F)cc3)n2)cc1)c1cccc(Cl)c1` (stereo not drawn) [Compound 65], in series [1], the “% Mortality CEW 50 μg/cm^2” value is recorded as “A (50-100)”. In series [2], the “% Mortality GPA 200 ppm” value is listed as “B (Less than 80)”. The “% Mortality BAW 50 μg/cm^2” value in series [3] is on record as “A (50-100)”.

`C#CC(OC(=O)Nc1ccc(-c2ncn(-c3ccc(OC(F)(F)F)cc3)n2)cc1)c1ccc(C(F)(F)F)cc1` (stereo not drawn) [Compound 66]: the “% Mortality CEW 50 μg/cm^2” value in series [1] is listed as “A (50-100)”. Further, the “% Mortality GPA 200 ppm” value in series [2] is listed as “B (Less than 80)”. For the same molecule, the “% Mortality BAW 50 μg/cm^2” value in series [3] is recorded as “A (50-100)”.

`CCC(OC(=O)Nc1ccc(-c2ncn(-c3ccc(OC(F)(F)F)cc3)n2)cc1)c1ccc(C(F)(F)F)cc1` (stereo not drawn) [Compound 67]: in series [1], the “% Mortality CEW 50 μg/cm^2” value was “A (50-100)”. For the same molecule, in series [2], the “% Mortality GPA 200 ppm” value is “B (Less than 80)”. The “% Mortality BAW 50 μg/cm^2” value in series [3] is “A (50-100)”.

For the molecule `CC(OC(=O)Nc1ccc(-c2ncn(-c3ccc(OC(F)(F)F)cc3)n2)cc1)c1cccc(C(F)(F)F)c1` (stereo not drawn) [Compound 68], the “% Mortality CEW 50 μg/cm^2” value in series [1] is listed as “A (50-100)”. Besides, the “% Mortality GPA 200 ppm” value in series [2] is “B (Less than 80)”. Further, in series [3], the “% Mortality BAW 50 μg/cm^2” value is “A (50-100)”.

On to `CC(OC(=O)Nc1ccc(-c2ncn(-c3ccc(OC(F)(F)F)cc3)n2)cc1)c1ccccc1C(F)(F)F` (stereo not drawn) [Compound 69], for which the “% Mortality CEW 50 μg/cm^2” value in series [1] was “A (50-100)”. Also, in series [2], the “% Mortality GPA 200 ppm” value is recorded as “B (Less than 80)”. For the same molecule, the “% Mortality BAW 50 μg/cm^2” value in series [3] is on record as “A (50-100)”.

Turning to `C=CC(OC(=O)Nc1ccc(-c2ncn(-c3ccc(OC(F)(F)F)cc3)n2)cc1)c1ccccc1` (stereo not drawn) [Compound 70], the “% Mortality CEW 50 μg/cm^2” value in series [1] is recorded as “A (50-100)”. Further, in series [2], the “% Mortality GPA 200 ppm” value was “B (Less than 80)”. Also, the “% Mortality BAW 50 μg/cm^2” value in series [3] is listed as “A (50-100)”.

`CCCCC(OC(=O)Nc1ccc(-c2ncn(-c3ccc(OC(F)(F)F)cc3)n2)cc1)c1ccccc1` (stereo not drawn) [Compound 71]: in series [1], the “% Mortality CEW 50 μg/cm^2” value is given as “A (50-100)”. Also, the “% Mortality GPA 200 ppm” value in series [2] is given as “B (Less than 80)”. The “% Mortality BAW 50 μg/cm^2” value in series [3] is listed as “A (50-100)”.

Take `CC#CC(OC(=O)Nc1ccc(-c2ncn(-c3ccc(OC(F)(F)F)cc3)n2)cc1)c1ccccc1` (stereo not drawn) [Compound 72]: the “% Mortality CEW 50 μg/cm^2” value in series [1] is on record as “A (50-100)”. In addition, the “% Mortality GPA 200 ppm” value in series [2] is given as “B (Less than 80)”. The “% Mortality BAW 50 μg/cm^2” value in series [3] is given as “A (50-100)”.

In the case of `CC(OC(=O)Nc1ccc(-c2ncn(-c3ccc(OC(F)(F)F)cc3)n2)cc1)c1c(Cl)cccc1Cl` (stereo not drawn) [Compound 73], the “% Mortality CEW 50 μg/cm^2” value in series [1] is “A (50-100)”. Moreover, the “% Mortality GPA 200 ppm” value in series [2] was “B (Less than 80)”. Also, in series [3], the “% Mortality BAW 50 μg/cm^2” value is on record as “A (50-100)”.

With `CCCC(OC(=O)Nc1ccc(-c2ncn(-c3ccc(OC(F)(F)F)cc3)n2)cc1)c1ccccc1` (stereo not drawn) [Compound 74], the “% Mortality CEW 50 μg/cm^2” value in series [1] was “A (50-100)”. Besides, the “% Mortality GPA 200 ppm” value in series [2] is reported as “B (Less than 80)”. The “% Mortality BAW 50 μg/cm^2” value in series [3] is “A (50-100)”.

On to `CC(OC(=O)Nc1ccc(-c2ncn(-c3ccc(OC(F)(F)F)cc3)n2)cc1)c1ccc(S(C)(=O)=O)cc1` (stereo not drawn) [Compound 75], for which, in series [1], the “% Mortality CEW 50 μg/cm^2” value is on record as “A (50-100)”. In addition, the “% Mortality GPA 200 ppm” value in series [2] is “B (Less than 80)”. In addition, in series [3], the “% Mortality BAW 50 μg/cm^2” value was “A (50-100)”.

Consider `CC(OC(=O)Nc1ccc(-c2ncn(-c3ccc(OC(F)(F)F)cc3)n2)cc1)c1cccs1` (stereo not drawn) [Compound 76], for which the “% Mortality CEW 50 μg/cm^2” value in series [1] was “A (50-100)”. The “% Mortality GPA 200 ppm” value in series [2] is on record as “B (Less than 80)”. For the same molecule, the “% Mortality BAW 50 μg/cm^2” value in series [3] is “A (50-100)”.
